# “And” between values parts separate entries of the source, which are not always exact repeats. Equal entries are not always repeated.
# What was measured:
# [1] = system: radiation induced hyperalgesia; conditions: systemically delivered, cited from earlier work
# [2] = system: subjects with osteoarthritis of the knee; test: Osteoarthritis of the Knee Safety Study: safety and tolerability of intra-articular capsaicin; assay type: in vivo, human
# Method: The primary objective of the study was to evaluate the safety and tolerability of intra-articular capsaicin, when co-administered with intra-articular local anesthetic, compared to placebo, in subjects with end-stage osteoarthritis of the knee, already scheduled to receive knee replacements.
# (§1) The study was designed to include 16 evaluation subjects. […] Sixteen subjects completed the study.
# (§2) Patients were treated randomly and in double-blind fashion in four treatment cohorts, with each cohort having a progressively longer interval between the intra-articular administration of study medication and subsequent total knee replacement (2, 4, 7, and 14 days). […] Gross and microscopic pathology analysis was completed for each treatment cohort before the next treatment cohort was treated.
# (§3) Each subject had 3 study visits: a Screening Day (Day −7 to −1), the Treatment Day (Day 0), and a Post-Treatment Day (scheduled for Day +2, +4, +7, or +14). On the Treatment Day the subject was randomized, pre-treatment evaluation was performed. The patients were brought into the procedure room, and a VAS pain score was taken (0 mm—no pain, 100 mm—extreme pain). Once the patient had marked his or her pain on the card, he/she was prepped for knee cannulation. Once the cannula was placed, the patient received by intra-articular infiltration, 3 mg/kg (maximum dose of 200 mg) of 2% lignocaine into the knee scheduled to be replaced.
# VAS pain scores as well as verbal reports were taken immediately following administration, as well as prior to knee replacement surgery. No subjects discontinued from the study due to adverse events.
# On the Post-Treatment Day, study evaluation was performed followed by the scheduled knee replacement, with intra-operative bone and soft tissue biopsies performed for subsequent examination. […] This therefore left the 3 placebo and 9 active patients from the 4 day, 7 day, and 14 day cohorts.
# [3] = system: subjects with osteoarthritis of the knee; test: Osteoarthritis of the Knee Safety Study: VAS pain at the target knee; assay type: in vivo, human
# Method: as §1, §2, §3
# VAS pain scores as well as verbal reports were taken immediately following administration, as well as prior to knee replacement surgery. No subjects discontinued from the study due to adverse events. […]
# [4] = system: subjects undergoing transpositional osteotomy (bunionectomy); test: Bunionectomy Efficacy Study: VAS pain score and rescue medication; assay type: in vivo, human; conditions: for VAS pain score (Table 4), mean +/− SEM: 1000 μg into the wound prior to closure, n = 11
# Method: The primary efficacy endpoint was the proportion of subjects in each treatment group requiring opioid analgesia in the first 24 hours post-operatively. The proportions were compared amongst treatment groups using the Cochran-Haenszel test. Secondary efficacy end points included: i) proportion of subjects in each treatment group requiring opioid analgesia in the first 36 hour period post-operatively (Similarly, the proportions were compared amongst treatment groups using the Cochran-Haenszel test); ii) proportion of subjects in each treatment group requiring opioid analgesia in the 10 day period post-operatively (Similarly, the proportions were compared amongst treatment groups using the Cochran-Haenszel test); iii) time to first usage of opioid analgesia in each treatment group (a survival analysis approach will be used: the product-limit (Kaplan-Meier) method will be applied to time to first usage of opioid analgesia. The median time to first usage of opioid analgesia will be estimated in both treatment groups. Pairwise comparisons will be performed to test for equality of the survival curves between the 2 treatment groups using both the log-rank and the Wilcoxon test); iv) total usage of analgesia in each treatment group (the total usage of analgesia will be compared by an analysis of variance with treatment and center as independent variables. A pairwise comparison will be performed between the treatment groups); and v) VAS assessment of pain at the site of operation in each treatment group (The VAS score at each time point will be compared by an analysis of variance with treatment and center as independent variables. A pairwise comparison will be performed between the treatment groups). […] The efficacy analysis was performed on the data obtained ten days postoperatively. The safety analysis was performed based on the safety data for the entire study, including the 6 week and 12 week follow-up periods. The blind was broken at the time the efficacy analysis was performed. However, the individual treatment assignment was available to the statistical analysis group only. All other personnel involved in the study, including the Investigator, study monitor and proprietary staff, remained blinded until the entire study was completed.
# The study was designed to include 40 evaluation subjects. […] Each subject had six (6) study visits: a Screening Day (Day −28 to −1), an Operation Day (Day 0), and four (4) Follow-up visits (scheduled for Days 3, 10 and weeks 6 and 12).
# On Operation Day (Day 0) the following was performed: a) Pre-operation: Prior to the initiation of an ankle block, inclusion/exclusion criteria assessment was performed. […] Immediately prior to wound closure, the Investigator slowly dripped the study medication (4 mL) from a syringe into the wound, ensuring even tissue exposure. The wound was then closed according to normal practices and procedures.
# In the 24 hours following administration of study medication, vital signs (supine pulse rate and blood pressure) were recorded at 1, 2, 4 and 24 hours post administration. VAS assessment of pain at the operation site was performed at 1, 4, 8, 12 and 24 hours post administration. In those instances where VAS measurements coincide with blood sampling procedures, the VAS assessment was performed first. […] The quantity of each blood sample was 10 mL. Laboratory safety assessments, e.g., haematology, biochemistry, urinalysis were performed at 24 hours post administration. Adverse events were spontaneously reported by the subject and recorded. Rescue analgesia medication was provided to the subject if required (initially diclofenac 50 mg, repeated at 8 hourly intervals if necessary). When diclofenac was judged by the Investigator to provide inadequate pain relief then the subject was provided with alfentanil, 1 mg, repeated at 6 hourly intervals when necessary.
smiles,measurement,setting,value
"COc1cc(CNC(=O)CCCC/C=C/C(C)C)ccc1O [capsaicin, N-(4-hydroxy-3-methoxybenzyl)-8-methylnon-trans-6-enamide]",effect on radiation induced hyperalgesia,[1]; final doses of 25 mg/kg or less prior to ultra violet radiation,prevented radiation induced hyperalgesia
same,effect on pain threshold,[1]; final doses of 25 mg/kg or less,did not elevate the pain threshold above normal range
same,duration of post-administration (hyper) algesic pain,"[2]; 300 μg dose group, individual subjects",17 minutes and 25 minutes (2×) and 42 minutes
same,proprioception at the injected knee,"[2]; any dose group, any time point",no discernable effect
same,average duration of post injection hyperalgesia,"[2]; burning sensation, 100 and 300 μg dose groups",less than thirty minutes
same,"erythema, edema or hemorrhage at the site of injection",[2]; in vivo,no treatment related signs
same,"histopathological examination of soft tissue, cartilage and bone",[2]; in vivo,"no treatment related effects on soft tissue, cartilage, or bone"
same,laboratory safety parameters and vital signs,[2]; in vivo,no treatment related effects on laboratory safety parameters or vital signs
same,systemic side effects,[2]; in vivo,No treatment related systemic side effects were seen
same,leakage of study drug from the joint space,"[2]; intra-articular, knee",low leakage
same,gross and microscopic pathology,[2]; knee tissue at replacement,normal
same,"reduction of VAS pain score, prior to drug administration vs day of surgery","[3]; 9 active patients of the 4 day, 7 day and 14 day cohorts, 10, 100 and 300 μg pooled",62±14%
same,treatment related indication of efficacy (VAS),"[3]; dose levels 10 μg, 100 μg and 300 μg",No clear treatment related indication of efficacy was seen
same,"VAS pain score (Table 4), mean +/− SEM",[4]; 8 hr,5.5 +/− 2.3
same,"VAS pain score (Table 4), mean +/− SEM",[4]; 12 hr,8.2 +/− 3.8
same,"VAS pain score (Table 4), mean +/− SEM",[4]; 24 hr,1.9 +/− 1.0
same,"VAS pain score (Table 4), mean +/− SEM",[4]; 48 hr,5.9 +/− 2.5
same,effect on opioid rescue,[4]; 1000 μg prior to wound closure,decreased opioid rescue
same,time at which a subject required rescue,"[4]; 1000 μg prior to wound closure, individual subjects",1 h and 4 h and 5 h and 8 h and 12 h
